# Patent publication US5942535A, “[a]-Annelated pyrrole derivatives and pharmaceutical use thereof” (Merckle GmbH, priority 1994, dated 1999)
# pIC50: −log10 of the molar value.
# Legend:
# [1] = physchem
# [2] = biological target: T1, cyclooxygenase (CO) (Bos taurus, UniProt O62664); test: Inhibition of the enzyme cyclooxygenase (CO); format: biochemical; details: second figure of cell 'LO/CO'; decimal comma; concentration unit inferred; read-out: 7) IC50 CO
# T1 construct: endogenous in cells
# T1 sequence (O62664 25-600): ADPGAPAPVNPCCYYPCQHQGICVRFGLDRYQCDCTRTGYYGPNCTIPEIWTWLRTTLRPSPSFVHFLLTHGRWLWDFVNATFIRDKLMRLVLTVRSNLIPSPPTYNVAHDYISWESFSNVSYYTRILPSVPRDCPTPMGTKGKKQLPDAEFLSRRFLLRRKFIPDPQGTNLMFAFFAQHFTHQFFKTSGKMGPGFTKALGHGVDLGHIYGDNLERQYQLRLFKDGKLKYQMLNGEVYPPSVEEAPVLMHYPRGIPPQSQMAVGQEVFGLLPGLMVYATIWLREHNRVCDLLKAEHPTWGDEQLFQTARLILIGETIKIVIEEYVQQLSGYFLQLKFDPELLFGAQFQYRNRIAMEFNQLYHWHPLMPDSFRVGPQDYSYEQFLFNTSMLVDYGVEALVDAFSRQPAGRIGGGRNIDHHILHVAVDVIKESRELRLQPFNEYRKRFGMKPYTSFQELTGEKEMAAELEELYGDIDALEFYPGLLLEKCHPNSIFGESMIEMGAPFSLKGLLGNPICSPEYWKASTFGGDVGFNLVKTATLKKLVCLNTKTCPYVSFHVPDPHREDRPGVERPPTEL
# Text: (§1) 7) IC50 /LO/CO: Inhibition of the enzyme cyclooxygenase (CO) and 5-lipoxygenase (LO), Dannhardt et al., J. Pharm. Pharmacol. 1992, 44:419-424.
# [3] = biological target: T2, 5-lipoxygenase (LO) (Bos taurus, UniProt F1MQ78); test: Inhibition of the enzyme 5-lipoxygenase (LO); format: biochemical; details: first figure of cell 'LO/CO'; decimal comma; concentration unit inferred; read-out: 7) IC50 LO
# T2 construct: endogenous in cells
# T2 sequence (F1MQ78 1-674): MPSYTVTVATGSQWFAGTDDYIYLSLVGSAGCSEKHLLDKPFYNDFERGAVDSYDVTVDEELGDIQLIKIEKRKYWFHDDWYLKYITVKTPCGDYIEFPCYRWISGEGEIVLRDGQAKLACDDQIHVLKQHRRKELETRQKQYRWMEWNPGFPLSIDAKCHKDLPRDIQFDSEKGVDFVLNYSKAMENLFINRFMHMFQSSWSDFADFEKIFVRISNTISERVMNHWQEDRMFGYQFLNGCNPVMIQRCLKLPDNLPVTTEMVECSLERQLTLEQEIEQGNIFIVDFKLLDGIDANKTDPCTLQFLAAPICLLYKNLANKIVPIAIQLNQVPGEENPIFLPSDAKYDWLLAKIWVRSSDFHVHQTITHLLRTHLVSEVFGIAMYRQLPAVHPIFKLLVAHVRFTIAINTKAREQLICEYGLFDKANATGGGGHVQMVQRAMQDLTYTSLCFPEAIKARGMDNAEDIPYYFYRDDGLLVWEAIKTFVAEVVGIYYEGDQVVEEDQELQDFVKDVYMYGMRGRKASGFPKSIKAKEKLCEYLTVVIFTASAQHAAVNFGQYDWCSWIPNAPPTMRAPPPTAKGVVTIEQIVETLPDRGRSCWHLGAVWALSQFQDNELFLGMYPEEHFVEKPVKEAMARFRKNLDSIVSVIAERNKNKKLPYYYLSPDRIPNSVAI
# Text: as §1
degraded at 24 h ([1]; aqueous solution) [%],half-life ([1]; chloroform) [h],pIC50 [2],pIC50 [3],SMILES
~2,~1,,,"CC1(C)Cc2c(-c3ccccc3)c(-c3ccc(Cl)cc3)c(CC(=O)O)n2C1 [6-(4-chlorophenyl)-2,2-dimethyl-7-phenyl-2,3-dihydro-1H-pyrrolizin-5-yl acetic acid]"
,,6.82,6.64,CC1(C)Cc2c(-c3ccccc3)c(-c3ccc(Cl)cc3)c(CC(=O)NS(C)(=O)=O)n2C1 [Example 4]
